Columns and labels:
Assay type in all cases: in vivo
[1] = test system: soybean having the Als1 mutation; experiment: Greenhouse postemergence test of ALS-inhibiting herbicides, soybean with Als1 mutation; settings: for Avg response (% phytotoxicity), Trait Als1: Table 2
Procedure: (§1) Soybean lines having wild type als1 & 2 genes, the Als1 mutation, the Als2 mutation, or both the Als1 and Als2 mutations were evaluated for their response to various herbicides. Two seeds from each line were planted into 4-inch pots containing Redi-Earth potting mix (Sun Gro Horticulture Canada Ltd. 52130 RR65, Seba Beach, Alberta TOE 2B0), with two replications planted for each treatment. Pots were placed in flats at 15 pots/flat, and the resulting plants were grown in a greenhouse environment supplemented with lighting (16 hr photoperiod) for the duration of the test. Selected herbicides representing the mode of action that inhibits the acetolactate synthase enzyme, also known as the acetohydroxyacid synthase enzyme, were applied postemergence to soybean when soybean plants were at the V2 growth stage, which is the stage at which the first two trifoliolate leaves were expanded.
(§2) Eleven active ingredients representing the five chemical families with herbicidal activity on the acetolactate synthase enzyme were tested. These herbicides can cause a phytotoxic response in wild type soybean plants. The five chemical families tested were sulfonylaminocarbonyltriazolinone (also known as triazolinone), imidazolinone, sulfonylurea, pyrimidinylthiobenzoate, and triazolopyrimidine. Application rates ranged from 0.5 times to eight times the currently labeled application rate for each active ingredient with spray application volume at 30 gallons/acre. The application rates tested were 0.5×, 1×, 2×, 4× and 8× the label rate for each herbicide. Herbicidal active ingredients were applied as formulated materials dispersed in water containing 0.25% nonionic surfactant (Trend® 90).
(§3) The test was evaluated by visually scoring plant phenotype 14 days after the herbicides were applied. Controls consisted of soybean plants of the same variety that received no herbicide treatments for each of all the varieties tested. Soybean response was recorded on a zero to 100 visual scale in which zero is no phytotoxic response and 100 is plant death fourteen days after the herbicides were applied. Soybean response (percent phytotoxicity) to postemergence applications of herbicides inhibiting the acetolactate synthase enzyme test results are shown in Table 1.
(§4) Results in Table 1 were evaluated using the isobole method for analyzing interactions. […] Here the biologically active agents that are being assessed for interaction (synergy) are gene mutations in soybean. The effectiveness of the genes in providing improved tolerance to ALS-inhibiting herbicides was assessed by applying increasing doses of herbicides to each soybean line with its mutation(s).
(§5) An isobole reduces a dose response surface in three dimensional space to a two dimensional plot by fixing a defined response level (e.g., 50% response). The isobole plot is a graph in the Cartesian plane with a straight line connecting the isoeffective rates of the individual components of the combination. This straight line represents expected responses for zero interactive combinations. The isoeffective rate used to create the isobole is often the EC50, the rate estimated to elicit 50% response, but other ECx values can be used. Since the isobole method is based on the potency of the components of the combination, an experimental design testing a range of rates expected to elicit the full range of responses (e.g., 0 to maximum response) is best. (Ferry et al. (2005) 2005 Conference on Applied Statistics in Agriculture Proceedings pp 33-50, Manhattan, Kans., Kansas State Univ.; Green and Streibig (1993) Herbicide Mixtures, pp 117-134 in Herbicide Bioassays, Streibig and Hudsk Eds, CRC, Boca Raton, Fla.).
(§6) Loglogistic dose response curves were fit to percent phytotoxicity response data using log 10 of dose (McCullagh and Nelder (1989) Generalized Linear Models, Chapman & Hall, London). Curves were fit using the logit link with normal errors. […]

[2] = test system: soybean having both the Als1 and Als2 mutations; experiment: Greenhouse postemergence test of ALS-inhibiting herbicides and isobole analysis, soybean with Als1 and Als2 mutations; settings: for Avg response (% phytotoxicity), Trait Als1 + Als2: Table 2
Procedure: as §1, §2, §3, §4, §5, §6

[3] = test system: wild type soybean; experiment: Greenhouse postemergence test of ALS-inhibiting herbicides, wild type soybean
Procedure: as §1, §2, §3

[4] = test system: soybean having the Als2 mutation; experiment: Greenhouse postemergence test of ALS-inhibiting herbicides, soybean with Als2 mutation; settings: for Avg response (% phytotoxicity), Trait Als2: Table 2
Procedure: as §1, §2, §3, §4, §5, §6

[5] = 35 g ai/ha postemergence at V2, scored 14 days after application
[6] = 70 g ai/ha postemergence at V2, scored 14 days after application
[7] = 140 g ai/ha postemergence at V2, scored 14 days after application
[8] = 280 g ai/ha postemergence at V2, scored 14 days after application
[9] = 560 g ai/ha postemergence at V2, scored 14 days after application
[10] = 8.75 g ai/ha postemergence at V2, scored 14 days after application
[11] = 17.5 g ai/ha postemergence at V2, scored 14 days after application
[12] = rate of herbicide estimated to cause 10% phytotoxic response, loglogistic fit

COc1cc(OC)nc(Sc2cccc(Cl)c2C(=O)O)n1 [Pyrithiobac sodium]
Soybean response (percent phytotoxicity), Als1 [1, 5]: 20%
Avg response (% phytotoxicity), Trait Als1 ([1]; 35 g ai/ha): 20%
Soybean response (percent phytotoxicity), Als1 [1, 6]: 50%
Avg response (% phytotoxicity), Trait Als1 ([1]; 70 g ai/ha): 50%
Soybean response (percent phytotoxicity), Als1 [1, 7]: 70%
Avg response (% phytotoxicity), Trait Als1 ([1]; 140 g ai/ha): 70%
Soybean response (percent phytotoxicity), Als1 [1, 8]: 98%
Avg response (% phytotoxicity), Trait Als1 ([1]; 280 g ai/ha): 98%
Soybean response (percent phytotoxicity), Als1 [1, 9]: 97%
Avg response (% phytotoxicity), Trait Als1 ([1]; 560 g ai/ha): 96.5%
Soybean response (percent phytotoxicity), Als1 + Als2 [2, 5]: 0%
Avg response (% phytotoxicity), Trait Als1 + Als2 ([2]; 35 g ai/ha): 0%
Soybean response (percent phytotoxicity), Als1 + Als2 [2, 6]: 5%
Avg response (% phytotoxicity), Trait Als1 + Als2 ([2]; 70 g ai/ha): 5%
Soybean response (percent phytotoxicity), Als1 + Als2 [2, 7]: 25%
Avg response (% phytotoxicity), Trait Als1 + Als2 ([2]; 140 g ai/ha): 25%
Soybean response (percent phytotoxicity), Als1 + Als2 [2, 8]: 45%
Avg response (% phytotoxicity), Trait Als1 + Als2 ([2]; 280 g ai/ha): 45%
Soybean response (percent phytotoxicity), Als1 + Als2 [2, 9]: 50%
Avg response (% phytotoxicity), Trait Als1 + Als2 ([2]; 560 g ai/ha): 50%
Soybean response (percent phytotoxicity), Wild type [3, 5]: 70%
Soybean response (percent phytotoxicity), Wild type [3, 6]: 95%
Soybean response (percent phytotoxicity), Wild type [3, 7]: 98%
Soybean response (percent phytotoxicity), Wild type [3, 8]: 98%
Soybean response (percent phytotoxicity), Wild type [3, 9]: 98%
Soybean response (percent phytotoxicity), Als2 [4, 5]: 20%
Avg response (% phytotoxicity), Trait Als2 ([4]; 35 g ai/ha): 40%
Soybean response (percent phytotoxicity), Als2 [4, 6]: 30%
Avg response (% phytotoxicity), Trait Als2 ([4]; 70 g ai/ha): 60%
Soybean response (percent phytotoxicity), Als2 [4, 7]: 40%
Avg response (% phytotoxicity), Trait Als2 ([4]; 140 g ai/ha): 80%
Soybean response (percent phytotoxicity), Als2 [4, 8]: 45%
Avg response (% phytotoxicity), Trait Als2 ([4]; 280 g ai/ha): 92.5%
Soybean response (percent phytotoxicity), Als2 [4, 9]: 49%
Avg response (% phytotoxicity), Trait Als2 ([4]; 560 g ai/ha): 98%

CCS(=O)(=O)c1cccnc1S(=O)(=O)NC(=O)Nc1nc(OC)cc(OC)n1 [Rimsulfuron]
Soybean response (percent phytotoxicity), Als1 [1, 10]: 0%
Avg response (% phytotoxicity), Trait Als1 ([1]; 8.75 g ai/ha): 0%
Soybean response (percent phytotoxicity), Als1 [1, 11]: 0%
Avg response (% phytotoxicity), Trait Als1 ([1]; 17.5 g ai/ha): 0%
Soybean response (percent phytotoxicity), Als1 [1, 5]: 20%
Avg response (% phytotoxicity), Trait Als1 ([1]; 35 g ai/ha): 20%
Soybean response (percent phytotoxicity), Als1 [1, 6]: 40%
Avg response (% phytotoxicity), Trait Als1 ([1]; 70 g ai/ha): 40%
Soybean response (percent phytotoxicity), Als1 [1, 7]: 80%
Avg response (% phytotoxicity), Trait Als1 ([1]; 140 g ai/ha): 80%
EC10, Als1 [1, 12]: 28.61 g ai/ha
phytotoxicity (in words), soybean containing only the Als1 gene ([1]; the higher doses): substantial phytotoxicity
Soybean response (percent phytotoxicity), Als1 + Als2 [2, 10]: 0%
Avg response (% phytotoxicity), Trait Als1 + Als2 ([2]; 8.75 g ai/ha): 0%
Soybean response (percent phytotoxicity), Als1 + Als2 [2, 11]: 0%
Avg response (% phytotoxicity), Trait Als1 + Als2 ([2]; 17.5 g ai/ha): 0%
Soybean response (percent phytotoxicity), Als1 + Als2 [2, 5]: 0%
Avg response (% phytotoxicity), Trait Als1 + Als2 ([2]; 35 g ai/ha): 0%
Soybean response (percent phytotoxicity), Als1 + Als2 [2, 6]: 10%
Avg response (% phytotoxicity), Trait Als1 + Als2 ([2]; 70 g ai/ha): 10%
Soybean response (percent phytotoxicity), Als1 + Als2 [2, 7]: 10%
Avg response (% phytotoxicity), Trait Als1 + Als2 ([2]; 140 g ai/ha): 10%
EC10, Als1 + Als2 [2, 12]: 123.22 g ai/ha
tolerance (in words), soybean containing both the Als1 and the Als2 genes ([2]; the higher doses): extremely tolerant
Soybean response (percent phytotoxicity), Wild type [3, 10]: 10%
Soybean response (percent phytotoxicity), Wild type [3, 11]: 35%
Soybean response (percent phytotoxicity), Wild type [3, 5]: 85%
Soybean response (percent phytotoxicity), Wild type [3, 6]: 95%
Soybean response (percent phytotoxicity), Wild type [3, 7]: 98%
Soybean response (percent phytotoxicity), Als2 [4, 10]: 0%
Avg response (% phytotoxicity), Trait Als2 ([4]; 8.75 g ai/ha): 0%
Soybean response (percent phytotoxicity), Als2 [4, 11]: 0%
Avg response (% phytotoxicity), Trait Als2 ([4]; 17.5 g ai/ha): 0%
Soybean response (percent phytotoxicity), Als2 [4, 5]: 20%
Avg response (% phytotoxicity), Trait Als2 ([4]; 35 g ai/ha): 20%
Soybean response (percent phytotoxicity), Als2 [4, 6]: 60%
Avg response (% phytotoxicity), Trait Als2 ([4]; 70 g ai/ha): 60%
Soybean response (percent phytotoxicity), Als2 [4, 7]: 80%
Avg response (% phytotoxicity), Trait Als2 ([4]; 140 g ai/ha): 80%
EC10, Als2 [4, 12]: 23.88 g ai/ha
phytotoxicity (in words), soybean containing only the Als2 gene ([4]; the higher doses): substantial phytotoxicity

From patent US20130254944A1, “Herbicide Tolerant Soybeans and Methods of Use” (PIONEER HI BRED INTERNATIONAL INC, priority 2012, published 2013)
